This assay concerns MCF-7 cells. As to the kind of experiment: MCF-7 Estrogen Dependent Proliferation Assay. It is filed as cell-based. To be noted: Homo sapiens, MCF7; added to Estrogen Depleted Media (EDM); read-out: EC50 of stimulation of growth of MCF-7 cells. The source says: MCF-7 Estrogen Dependent Proliferation Assay MCF-7 cells (ATCC #HTB-22) are human mammary gland adenocarcinoma cells that require estrogen for growth. The growth media (GM) for the MCF-7 cells is Minimum Essential Media (without phenol red) supplemented with fetal bovine serum ([…]) to 10%. The PBS serves as the sole source of estrogen and this GM supports the full growth of the cells and is used for the routine growth of the cell cultures. When MCF-7 cells are placed in a media in which 10% Charcoal-Dextran treated fetal bovine serum (CD-FBS) is substituted for PBS, the cells will cease to divide but will remain viable. […] The addition of estradiol to EDM stimulates the growth of the MCF-7 cells in a dose dependent manner with an EC50 of 2 pM. Growing MCF-7 cells are washed several times with EDM and the cultures then maintained in EDM for a minimum of 6 days in order to deplete the cells of endogenous estrogen. […] At this point, the culture supernatants are aspirated, the cells washed 2× with PBS, the wash solution aspirated and the protein content of each well determined. Each drug dilution is evaluated on a minimum of 5 wells and the range of dilution of the test compounds in the assay is 0.001 nM to 1000 nM. […] The assay is terminated at day 8-10 when the appropriate controls reach 80-90% confluency and the protein content of each well is determined as above.

For the compound `C[C@]12CC[C@@H]3c4ccc(O)cc4CC[C@H]3[C@@H]1CC[C@@H]2O` [estradiol], the EC50 (commonly the concentration giving half of the maximal effect) amounted to 2 pM.
